Source: patent publication US9683019B2, “Cyclic polypeptides for the treatment of heart failure” (priority 2013, dated 2017)
Where two headings read alike, the source gives them in different places. Where a SMILES comes first, the peptide text is derived from it. Bridges are numbered along the chain shown (N, C = ends). [ ]: non-standard residue; d: D form. The star is where a group is joined. 2Nal = N[C@@H](Cc1ccc2ccccc2c1)C(=O)O; N(Me)CH2CH2Ph = CN(CCc1ccccc1)*; pGlu = O=C1CC[C@@H](C(=O)O)N1; NHPhenethyl = c1ccc(CCN*)cc1; d(hCys) = N[C@H](CCS)C(=O)O; dNle = CCCC[C@@H](N)C(=O)O; hCys = N[C@@H](CCS)C(=O)O; Nle = CCCC[C@H](N)C(=O)O

Experiment: Surrogate Activity-Based Plasma Stability Assay
Assay type: in vitro ADME
Conditions: rat
Excerpt: Surrogate Activity-Based Plasma Stability Assay:
2) Calculate slope of value above and […]

Row | half-life | Structure (SMILES) | half-life (read-out: Surrogate activity-based Plasma stability t½)
1 | 7 min | CCCC[C@H](NC(=O)[C@@H]1CCCN1C(=O)CNC(=O)[C@H](CCCCN)NC(=O)[C@@H]1CCSSCC[C@@H](NC(C)=O)C(=O)N[C@@H](CCCNC(=N)N)C(=O)N2CCC[C@H]2C(=O)N[C@@H](CCCNC(=N)N)C(=O)N[C@@H](CC(C)C)C(=O)N[C@@H](CO)C(=O)N1)C(=O)N1CCC[C@H]1C(=O)N[C@@H](Cc1ccccc1)C(=O)O [Example 16, Ac-(D-hC)*-R-P-R-L-S-hC*-K-G-P-Nle-P-F-OH] (Ac-[d(hCys)]RPRLS[hCys]KGP[Nle]PF-OH; disulfide 1-7) | –
2 | 11.4 min | CCCC[C@H](NC(=O)[C@@H]1CCCN1C(=O)CNC(=O)[C@H](CCCCN)NC(=O)[C@H]1CCSSCC[C@@H](NC(C)=O)C(=O)N[C@@H](CCCNC(=N)N)C(=O)N2CCC[C@H]2C(=O)N[C@@H](CCCNC(=N)N)C(=O)N[C@@H](CC(C)C)C(=O)N[C@@H](CO)C(=O)N1)C(=O)N1CCC[C@H]1C(=O)N[C@@H](Cc1ccccc1)C(=O)O [Example 17, Ac-(D-hC)*-R-P-R-L-S-(D-hC)*-K-G-P-Nle-P-F-OH] (Ac-[d(hCys)]RPRLS[d(hCys)]KGP[Nle]PF-OH; disulfide 1-7) | –
3 | 50 min | CC(=O)N[C@@H]1CCSSCC[C@@H](C(=O)N[C@@H](CCCCN)C(=O)NCC(=O)N2CCC[C@H]2C(=O)N[C@H](Cc2ccccc2)C(=O)N[C@H](C)C(=O)N[C@H](Cc2ccccc2)C(=O)O)NC(=O)[C@H](CO)NC(=O)[C@H](CC(C)C)NC(=O)[C@H](CCCNC(=N)N)NC(=O)[C@@H]2CCCN2C(=O)[C@H](CCCNC(=N)N)NC1=O [Example 18, Ac-(D-hC)*-R-P-R-L-S-(hC)*-K-G-P-f-a-f-OH] (Ac-[d(hCys)]RPRLS[hCys]KGP[dF][dA][dF]-OH; disulfide 1-7) | –
4 | 50 min | CCCC[C@@H](NC(=O)[C@@H]1CCCN1C(=O)CNC(=O)[C@H](CCCCN)NC(=O)[C@@H]1CCSSC[C@@H](NC(C)=O)C(=O)N[C@@H](CCCNC(=N)N)C(=O)N2CCC[C@H]2C(=O)N[C@@H](CCCNC(=N)N)C(=O)N[C@@H](CC(C)C)C(=O)N[C@@H](CO)C(=O)N1)C(=O)N[C@H](C)C(=O)N[C@H](Cc1ccccc1)C(=O)O [Example 19, Ac-c-R-P-R-L-S-(hC)-K-G-P-(D-Nle)-a-f-OH] (Ac-[dC]RPRLS[hCys]KGP[dNle][dA][dF]-OH; disulfide 1-7 (inferred)) | –
5 | 11.9 min | CCCC[C@H](NC(=O)[C@@H]1CCCN1C(=O)CNC(=O)[C@H](CCCCN)NC(=O)[C@@H]1CSSC[C@H](NC(=O)[C@H](CCCNC(=N)N)NC(=O)[C@@H]2CCC(=O)N2)C(=O)N[C@@H](CCCNC(=N)N)C(=O)N[C@@H](CC(C)C)C(=O)N[C@@H](CO)C(=O)N1)C(=O)N1CCC[C@H]1C(=O)N[C@@H](Cc1ccccc1)C(=O)O [Example 20, pE-R-C*-R-L-S-C*-K-G-P-Nle-P-F-OH] ([pGlu]RCRLSCKGP[Nle]PF-OH; disulfide 3-7) | –
6 | > 1000 min | CCCC[C@@H](NC(=O)[C@@H]1CCCN1C(=O)CNC(=O)[C@H](CCCCN)NC(=O)[C@@H]1CSSC[C@H](NC(=O)[C@H](CCCNC(=N)N)NC(=O)[C@@H]2CCC(=O)N2)C(=O)N[C@@H](CCCNC(=N)N)C(=O)N[C@@H](CC(C)C)C(=O)N[C@@H](CO)C(=O)N1)C(=O)N[C@H](C)C(=O)N[C@H](Cc1ccccc1)C(=O)O [Example 21, pE-R-C*-R-L-S-C*-K-G-P-(D-Nle)-a-f-OH] ([pGlu]RCRLSCKGP[dNle][dA][dF]-OH; disulfide 3-7) | –
7 | > 1000 min | CCCC[C@@H](NC(=O)[C@@H]1CCCN1C(=O)CNC(=O)[C@H](Cc1ccccc1)NC(=O)[C@@H]1CSSC[C@H](NC(=O)[C@H](CCCNC(=N)N)NC(=O)[C@@H]2CCC(=O)N2)C(=O)N[C@@H](CCCNC(=N)N)C(=O)N[C@@H](CC(C)C)C(=O)N[C@@H](CO)C(=O)N1)C(=O)N[C@H](C)C(=O)N[C@H](Cc1ccccc1)C(=O)O [Example 22, pE-R-C*-R-L-S-C*-F-G-P-(D-Nle)-a-f-OH] ([pGlu]RCRLSCFGP[dNle][dA][dF]-OH; disulfide 3-7) | –
8 | 3160 min | CCCC[C@@H](NC(=O)[C@@H]1CCCN1C(=O)[C@@H](C)NC(=O)[C@H](CCCCN)NC(=O)[C@@H]1CSSC[C@H](NC(=O)[C@H](CCCNC(=N)N)NC(=O)[C@@H]2CCC(=O)N2)C(=O)N[C@@H](CCCNC(=N)N)C(=O)N[C@@H](CC(C)C)C(=O)N[C@@H](CO)C(=O)N1)C(=O)N[C@H](C)C(=O)N[C@H](Cc1ccccc1)C(=O)O [Example 23, pE-R-C*-R-L-S-C*-K-a-P-(D-Nle)-a-f-OH] ([pGlu]RCRLSCK[dA]P[dNle][dA][dF]-OH; disulfide 3-7) | –

The remaining lines, values behind:

Row | Structure (SMILES) | half-life | half-life (read-out: Surrogate activity-based Plasma stability t½)
9 | CCCC[C@H](NC(=O)[C@@H]1CCCN1C(=O)CNC(=O)[C@H](CCCCN)NC(=O)[C@@H]1CSSC[C@H](NC(C)=O)C(=O)N[C@@H](CCCNC(=N)N)C(=O)N2CCC[C@H]2C(=O)N[C@@H](CCCNC(=N)N)C(=O)N[C@@H](CC(C)C)C(=O)N[C@@H](CO)C(=O)N1)C(=O)N1CCC[C@H]1C(=O)N[C@@H](Cc1ccccc1)C(=O)O [Example 1, Ac-C*-R-P-R-L-S-C*-K-G-P-Nle-P-F-OH] (Ac-CRPRLSCKGP[Nle]PF-OH; disulfide 1-7) | 8 min | –
10 | CCCC[C@H](NC(=O)[C@@H]1CCCN1C(=O)CNC(=O)[C@H](CCCCN)NC(=O)[C@@H]1CSSC[C@H](NC(C)=O)C(=O)N[C@@H](CCCNC(=N)N)C(=O)N2CCC[C@H]2C(=O)N[C@@H](CCCNC(=N)N)C(=O)N[C@@H](CC(C)C)C(=O)N[C@@H](CO)C(=O)N1)C(=O)N1CCC[C@H]1C(=O)NCCc1ccccc1 [Example 2, Ac-C*-R-P-R-L-S-C*-K-G-P-Nle-P-NH(Phenethyl)] (Ac-CRPRLSCKGP[Nle]P-NHPhenethyl; disulfide 1-7) | 39 min | –
11 | CCCC[C@H](NC(=O)[C@@H]1CCCN1C(=O)CNC(=O)[C@H](CCCCN)NC(=O)[C@@H]1CSSC[C@H](NC(C)=O)C(=O)N[C@@H](CCCNC(=N)N)C(=O)N2CCC[C@H]2C(=O)N[C@@H](CCCNC(=N)N)C(=O)N[C@@H](CC(C)C)C(=O)N[C@@H](CO)C(=O)N1)C(=O)N1CCC[C@H]1C(N)=O [Example 4, Ac-C*-R-P-R-L-S-C*-K-G-P-Nle-P-NH2] (Ac-CRPRLSCKGP[Nle]P-NH2; disulfide 1-7) | 506 min | –
12 | CCCC[C@H](NC(=O)[C@@H]1CCCN1C(=O)CNC(=O)[C@H](CCCCN)NC(=O)[C@@H]1CSSC[C@H](NC(C)=O)C(=O)N[C@@H](CCCNC(=N)N)C(=O)N2CCC[C@H]2C(=O)N[C@@H](CCCNC(=N)N)C(=O)N[C@@H](CC(C)C)C(=O)N[C@@H](CO)C(=O)N1)C(=O)N1CCC[C@H]1C(=O)N[C@@H](Cc1ccc2ccccc2c1)C(=O)O [Example 5, Ac-C*-R-P-R-L-S-C*-K-G-P-Nle-P-Nal-OH] (Ac-CRPRLSCKGP[Nle]P[2Nal]-OH; disulfide 1-7) | 5 min | –
13 | CCCC[C@H](NC(=O)[C@@H]1CCCN1C(=O)CNC(=O)[C@H](CCCCN)NC(=O)[C@@H]1CCSSCC[C@H](NC(C)=O)C(=O)N[C@@H](CCCNC(=N)N)C(=O)N2CCC[C@H]2C(=O)N[C@@H](CCCNC(=N)N)C(=O)N[C@@H](CC(C)C)C(=O)N[C@@H](CO)C(=O)N1)C(=O)N1CCC[C@H]1C(=O)N[C@@H](Cc1ccccc1)C(=O)O [Example 7, Ac-hC*-R-P-R-L-S-hC*-K-G-P-Nle-P-F-OH] (Ac-[hCys]RPRLS[hCys]KGP[Nle]PF-OH; disulfide 1-7) | 9 min | –
14 | CCCC[C@H](NC(=O)[C@@H]1CCCN1C(=O)CNC(=O)[C@H](CCCCN)NC(=O)[C@@H]1CSSC[C@H](NC(C)=O)C(=O)N[C@@H](CCCNC(=N)N)C(=O)N2CCC[C@H]2C(=O)N[C@@H](CCCNC(=N)N)C(=O)N[C@@H](CC(C)C)C(=O)N[C@@H](CO)C(=O)N1)C(=O)N1CCC[C@H]1C(=O)N[C@H](C)C(=O)O [Example 8, Ac-C*-R-P-R-L-S-C*-K-G-P-Nle-P-a-OH] (Ac-CRPRLSCKGP[Nle]P[dA]-OH; disulfide 1-7) | 662 min | –
15 | CCCC[C@H](NC(=O)[C@@H]1CCCN1C(=O)CNC(=O)[C@H](CCCCN)NC(=O)[C@@H]1CSSC[C@H](NC(C)=O)C(=O)N[C@@H](CCCNC(=N)N)C(=O)N2CCC[C@H]2C(=O)N[C@@H](CCCNC(=N)N)C(=O)N[C@@H](CC(C)C)C(=O)N[C@@H](CO)C(=O)N1)C(=O)N1CCC[C@H]1C(=O)N(C)CCc1ccccc1 [Example 9, Ac-C*-R-P-R-L-S-C*-K-G-P-Nle-P-NMe(Phenethyl)] (Ac-CRPRLSCKGP[Nle]P-{N(Me)CH2CH2Ph}; disulfide 1-7) | – | 109 min
16 | CCCC[C@H](NC(=O)[C@@H]1CCCN1C(=O)CNC(=O)[C@H](CCCCN)NC(=O)[C@@H]1CSSC[C@H](NC(C)=O)C(=O)N[C@@H](CCCNC(=N)N)C(=O)N2CCC[C@H]2C(=O)N[C@@H](CCCNC(=N)N)C(=O)N[C@@H](CC(C)C)C(=O)N[C@@H](CO)C(=O)N1)C(=O)N1CCC[C@H]1C(=O)N[C@H](Cc1ccccc1)C(=O)O [Example 10, Ac-C*-R-P-R-L-S-C*-K-G-P-Nle-P-f-OH] (Ac-CRPRLSCKGP[Nle]P[dF]-OH; disulfide 1-7) | 57.4 min | –
17 | CCCC[C@H](NC(=O)[C@@H]1CCCN1C(=O)CNC(=O)[C@H](CCCCN)NC(=O)[C@@H]1CSSC[C@H](NC(C)=O)C(=O)N[C@@H](CCCNC(=N)N)C(=O)N2CCC[C@H]2C(=O)N[C@@H](CCCNC(=N)N)C(=O)N[C@@H](CC(C)C)C(=O)N[C@@H](CO)C(=O)N1)C(=O)NCCc1ccccc1 [Example 11, Ac-C*-R-P-R-L-S-C*-K-G-P-Nle-NH(Phenethyl)] (Ac-CRPRLSCKGP[Nle]-NHPhenethyl; disulfide 1-7) | 32.8 min | –
18 | CCCC[C@H](NC(=O)[C@@H]1CCCN1C(=O)CNC(=O)[C@H](CCCCN)NC(=O)[C@@H]1CCSSC[C@@H](NC(C)=O)C(=O)N[C@@H](CCCNC(=N)N)C(=O)N2CCC[C@H]2C(=O)N[C@@H](CCCNC(=N)N)C(=O)N[C@@H](CC(C)C)C(=O)N[C@@H](CO)C(=O)N1)C(=O)N1CCC[C@H]1C(=O)N[C@@H](Cc1ccccc1)C(=O)O [Example 13, Ac-c*-R-P-R-L-S-hC*-K-G-P-Nle-P-F-OH] (Ac-[dC]RPRLS[hCys]KGP[Nle]PF-OH; disulfide 1-7) | 10 min | –
19 | CCCC[C@H](NC(=O)[C@@H]1CCCN1C(=O)CNC(=O)[C@H](CCCCN)NC(=O)[C@H]1CSSC[C@@H](NC(C)=O)C(=O)N[C@@H](CCCNC(=N)N)C(=O)N2CCC[C@H]2C(=O)N[C@@H](CCCNC(=N)N)C(=O)N[C@@H](CC(C)C)C(=O)N[C@@H](CO)C(=O)N1)C(=O)N1CCC[C@H]1C(=O)N[C@@H](Cc1ccccc1)C(=O)O [Example 14, Ac-c*-R-P-R-L-S-c*-K-G-P-Nle-P-F-OH] (Ac-[dC]RPRLS[dC]KGP[Nle]PF-OH; disulfide 1-7) | 7.5 min | –
